Data published in article PMC10185516, “Synthesis, in vitro inhibitor screening, structure–activity relationship, and molecular dynamic simulation studies of novel thioquinoline derivatives as potent α-glucosidase inhibitors” (Scientific Reports, 2023).
Read-outs that look alike come from different tables or passages of the source.

How the values were obtained:
[1] = target: T1, α-glucosidase enzyme (EC3.2.1.20) (Saccharomyces cerevisiae, UniProt P38158); experiment: biochemical; assay type: biochemical
T1 construct: purchased Sigma-Aldrich
Experimental: α-glucosidase enzyme (EC3.2.1.20, Saccharomyces cerevisiae, 20 U/mg) and substrate (p-nitrophenyl glucopyranoside) were purchased from Sigma-Aldrich. α-glucosidase was dissolved in potassium phosphate buffer (50 mM, pH = 6.8) to obtain the initial activity of 1 U/ml. Then, 20 µl of this enzyme solution was added to 135 µl of potassium phosphate buffer and 20 µl of test compound at various concentrations in DMSO. After 10 min incubation at 37 °C, 25 µl of the substrate at a final concentration of 4 mM was added to the mixture and allowed to incubate at 37 °C for 20 min. Then, the change in absorbance was measured at 405 nm spectroscopically. […] The percentage of inhibition for each entry was calculated by using the following formula: \%Inhibition=Abs control-Abs sample/Abs control×100 IC50 values were obtained from the nonlinear regression curve using the Logit method[15],[29].

α-glucosidase [2] = details: cited from earlier work
α-glucosidase [3] = target: T2, α-glucosidase (Saccharomyces cerevisiae, UniProt P38158); experiment: Enzyme kinetic studies (Lineweaver–Burk plot, secondary plot); assay type: biochemical
T2 construct: purchased Sigma-Aldrich
Experimental: A Lineweaver–Burk plot was generated to identify the type of inhibition and the Michaelis–Menten constant (Km) value was determined from the plot between the reciprocal of the substrate concentration (1/[S]) and reciprocal of enzyme rate (1/V) over various inhibitor concentrations.

[4] = design: method as in PMID 29980114; details: at the tested concentrations; cited from earlier work
[5] = previously reported aryl-hydrazide inhibitors, Fig. 1, read-out: IC50
[6] = previously reported inhibitors, Fig. 1, recent research

T1 sequence (P38158 whole entry): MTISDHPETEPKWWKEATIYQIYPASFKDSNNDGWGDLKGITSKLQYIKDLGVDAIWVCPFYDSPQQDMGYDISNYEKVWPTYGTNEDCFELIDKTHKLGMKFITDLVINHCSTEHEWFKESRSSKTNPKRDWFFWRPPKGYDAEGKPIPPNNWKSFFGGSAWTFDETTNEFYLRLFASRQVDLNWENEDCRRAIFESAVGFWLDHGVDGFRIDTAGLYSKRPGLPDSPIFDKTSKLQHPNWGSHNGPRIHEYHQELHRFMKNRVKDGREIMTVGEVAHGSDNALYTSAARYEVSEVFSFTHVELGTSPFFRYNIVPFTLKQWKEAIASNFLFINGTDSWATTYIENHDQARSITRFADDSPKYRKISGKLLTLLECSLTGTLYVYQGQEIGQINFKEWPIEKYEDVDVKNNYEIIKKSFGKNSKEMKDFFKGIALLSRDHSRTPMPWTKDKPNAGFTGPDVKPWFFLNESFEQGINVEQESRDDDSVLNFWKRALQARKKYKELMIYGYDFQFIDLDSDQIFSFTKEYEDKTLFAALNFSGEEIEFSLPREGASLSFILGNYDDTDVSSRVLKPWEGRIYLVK
T2 sequence (P38158 whole entry): as above

In the case of O=C(CSc1nc2ccccc2cc1C=NNC(=O)c1ccccc1)Nc1ccccc1 [Compound 9a, 2-((3-((2-Benzoylhydrazineylidene)methyl)quinolin-2-yl)thio)-N-phenylacetamide], the melting point is reported as 245 to 247 °C, the IC50 [1] is reported as 88.5 ± 1.3 µM and the “improvement in inhibitory potency compared to the positive control” value ([1]; versus acarbose) is reported as “approximately nine-fold”.

Compound O=C(CSc1nc2ccccc2cc1C=NNC(=O)c1ccccc1)NCc1ccccc1 [Compound 9o, 2-((3-((2-Benzoylhydrazineylidene)methyl)quinolin-2-yl)thio)-N-benzylacetamide] has a melting point of 241 to 243 °C and an IC50 [1] of 373.8 ± 0.8 µM.

In the case of CCc1ccc(NC(=O)CSc2nc3ccccc3cc2C=NNC(=O)c2ccccc2)cc1 [Compound 9k, 2-((3-((2-Benzoylhydrazineylidene)methyl)quinolin-2-yl)thio)-N-(4-ethylphenyl)acetamide], the melting point is reported as 255 to 257 °C and the IC50 [1] is reported as 60.4 ± 0.2 µM.

Compound Cc1cccc(NC(=O)CSc2nc3ccccc3cc2C=NNC(=O)c2ccccc2)c1C [Compound 9l, 2-((3-((2-Benzoylhydrazineylidene)methyl)quinolin-2-yl)thio)-N-(2,3-dimethylphenyl)acetamide] has a melting point of 241 to 243 °C and an IC50 [1] of 37.99 ± 0.2 µM.

In the case of O=C(N/N=C/c1cccc(F)c1)c1ccc2nc(-c3ccccc3)c(-c3ccccc3)nc2c1 [F], the IC50 (α-glucosidase [2]; [5]) is given as 111 ± 6 µM.

With O=C(CSc1nc2ccccc2cc1C=NNC(=O)c1ccccc1)Nc1ccc(Cl)cc1 [Compound 9e, 2-((3-((2-Benzoylhydrazineylidene)methyl)quinolin-2-yl)thio)-N-(4-chlorophenyl)acetamide] the melting point was 262 to 264 °C and the IC50 [1] was 234.9 ± 0.9 µM.

Compound O=C(CSc1nc2ccccc2cc1C=NNC(=O)c1ccccc1)Nc1ccc([N+](=O)[O-])cc1 [Compound 9g, 2-((3-((2-benzoylhydrazineylidene)methyl)quinolin-2-yl)thio)-N-(4-nitrophenyl)acetamide] has a melting point of 241 to 243 °C and an IC50 [1] of 93.7 ± 1.5 µM.

In the case of O=C(O)c1cnc2ccccc2c1 [B], the IC50 (α-glucosidase [2]; [6]) is listed as 10.6 ± 1.4 µg/mL.

For O=C(CSc1nc2ccccc2cc1C=NNC(=O)c1ccccc1)Nc1ccc(Br)cc1 [Compound 9f, 2-((3-((2-Benzoylhydrazineylidene)methyl)quinolin-2-yl)thio)-N-(4-bromophenyl)acetamide], the melting point was 254 to 257 °C and the IC50 [1] was 352.4 ± 1.1 µM.

Cc1ccc(NC(=O)CSc2nc3ccccc3cc2C=NNC(=O)c2ccccc2)cc1 [Compound 9i, 2-((3-((2-Benzoylhydrazineylidene)methyl)quinolin-2-yl)thio)-N-(p-tolyl)acetamide] gave a melting point of 254 to 256 °C and an IC50 [1] of 305 ± 1.1 µM.

In the case of O=C(O)c1ccc2ccccc2n1 [A], the IC50 (α-glucosidase [2]; [6]) is given as 9.1 ± 2.3 µg/mL.

Work on O=C(CSc1nc2ccccc2cc1C=NNC(=O)c1ccccc1)Nc1ccccc1F [Compound 9b, 2-((3-((2-Benzoylhydrazineylidene)methyl)quinolin-2-yl)thio)-N-(2-fluorophenyl)acetamide] yielded a melting point of 268 to 270 °C and an IC50 [1] of 109.4 ± 0.2 µM.

In the case of O=C(CSc1nc2ccccc2cc1C=NNC(=O)c1ccccc1)Nc1ccc(F)cc1 [Compound 9c, 2-((3-((2-Benzoylhydrazineylidene)methyl)quinolin-2-yl)thio)-N-(4-fluorophenyl)acetamide], the melting point is reported as 271 to 273 °C and the IC50 [1] is reported as 46 ± 0.5 µM.

With COc1ccc(NC(=O)CSc2nc3ccccc3cc2C=NNC(=O)c2ccccc2)cc1 [Compound 9j, 2-((3-((2-Benzoylhydrazineylidene)methyl)quinolin-2-yl)thio)-N-(4-methoxyphenyl)acetamide] the melting point was 241 to 243 °C and the IC50 [1] was 24.7 ± 0.3 µM.

With O=C(CSc1nc2ccccc2cc1C=NNC(=O)c1ccccc1)NCc1ccc(F)cc1 [Compound 9p, 2-((3-((2-Benzoylhydrazineylidene)methyl)quinolin-2-yl)thio)-N-(4-fluorobenzyl)acetamide] the melting point was 269 to 271 °C and the IC50 [1] was 78 ± 2.4 µM.

Work on O=C(CSc1nc2ccccc2cc1C=NNC(=O)c1ccccc1)Nc1ccc2ccccc2c1 [Compound 9n, 2-((3-((2-Benzoylhydrazineylidene)methyl)quinolin-2-yl)thio)-N-(naphthalen-2-yl)acetamide] yielded a melting point of 263 to 265 °C and an IC50 [1] of 18.4 ± 0.4 µM.

For Cc1cccc(C)c1NC(=O)CSc1nc2ccccc2cc1/C=N/NC(=O)c1ccccc1 [Compound 9m, 2-((3-((2-Benzoylhydrazineylidene)methyl)quinolin-2-yl)thio)N(2,6dimethylphenyl)acetamide], the mode of inhibition (α-glucosidase [3]; Lineweaver–Burk plot, Km increased, Vmax unchanged) was “competitive”, the Ki (α-glucosidase [3]; from plot of Km versus inhibitor concentration, read-out: Ki (inhibition constant)) was 18 µM and the IC50 ([1]; α-glucosidase inhibition, mean ± SD, read-out: IC50) was 14 ± 0.6 µM.

Compound O=C(CSc1nc2ccccc2cc1C=NNC(=O)c1ccccc1)Nc1cccc(Cl)c1 [Compound 9d, 2-((3-((2-Benzoylhydrazineylidene)methyl)quinolin-2-yl)thio)-N-(3-chlorophenyl)acetamide] has a melting point of 255 to 257 °C and an IC50 [1] of 193.8 ± 1 µM.

In the case of COc1ccc2nc3cc(Cl)ccc3c(SCC(=O)Nc3ccc(C)cc3)c2c1 [D], the toxicity [4] is listed as “no toxicity” and the IC50 (α-glucosidase [2]; previously reported inhibitor and its positive control, read-out: IC50) is listed as 80 ± 2 µM.

In the case of O=C(CSc1nc2ccccc2cc1-c1nc2ccccc2[nH]1)Nc1cccc(Cl)c1 [C], the IC50 (α-glucosidase [2]; previously reported inhibitor, Fig. 1, read-out: IC50) is given as 3.2 ± 0.3 µM.

Work on Cc1ccccc1NC(=O)CSc1nc2ccccc2cc1C=NNC(=O)c1ccccc1 [Compound 9h, 2-((3-((2-Benzoylhydrazineylidene)methyl)quinolin-2-yl)thio)-N-(o-tolyl)acetamide] yielded a melting point of 260 to 263 °C and an IC50 [1] of 141.8 ± 0.6 µM.

In the case of O=C(N/N=C/c1ccc(Cl)cc1)c1ccc(-c2nc3ccccc3s2)cc1 [E], the IC50 (α-glucosidase [2]; [5]) is given as 83.8 ± 0.89 µM.
